Experimental data reported in patent US9321753B2, “Inhibitors of Flaviviridae viruses” (Gilead Sciences, Inc., priority 2010, dated 2016).
Where two headings read alike, the source gives them in different places.

Test system: HCV replicon
Assay: HCV replicon assay in human hepatoma Huh-7 cell line (luciferase readout)
Format: cell-based
Settings: for inhibition at 2 µM: Hepatitis C virus, Huh-7, 72 h, read-out: % inhibition at 2 μM
Description: The anti-HCV activity of the compounds of this invention was tested in a human hepatoma Huh-7 cell line harboring a HCV replicon. The assay comprised the following steps:
Serial dilution was performed in 100% DMSO in a 384-well plate. A solution containing a compound at 225-fold concentration of the starting final serial dilution concentration was prepared in 100% DMSO and 15 uL added to the pre-specified wells in column 3 or 13 of a polypropylene 384-well plate. The rest of the 384-well plate was filled with 10 uL 100% DMSO except for columns 23 and 24, where 10 uL of 500 uM a HCV protease inhibitor (ITMN-191) in 100% DMSO was added. The HCV protease inhibitor was used a control of 100% inhibition of HCV replication. The plate was then placed on a Biomek FX Workstation to start the serial dilution. The serial dilution was performed for ten cycles of 3-fold dilution from column 3 to 12 or from column 13 to 22.
To each well of a black polypropylene 384-well plate, 90 μL of cell media containing 1600 suspended Huh-7 HCV replicon cells was added with a Biotek uFlow Workstation. A volume of 0.4 μL of the compound solution was transferred from the serial dilution plate to the cell culture plate on a Biomek FX Workstation. The DMSO concentration in the final assay condition was 0.44%. The plates were incubated for 3 days at 37° C. with 5% CO2 and 85% humidity.
a) Assessment of cytotoxicity: The media in the 384-well cell culture plate was aspirated with a Biotek EL405 plate-washer. A volume of 50 μL of a solution containing 400 nM Calcein AM in 100% PBS was added to each well of the plate with a Biotek uFlow Workstation. The plate was incubated for 30 minutes at room temperature before the fluorescence signal ([…]) was measured with a Perkin Elmer Envision Plate Reader.
b) Assessment of inhibition of viral replication: The calcein-PBS solution in the 384-well cell culture plate was aspirated with a Biotek EL405 plate-washer. A volume of 20 μL of Dual-Glo luciferase buffer (Promega, Dual-Glo Luciferase Assay Reagent, cat. #E298B) was added to each well of the plate with a Biotek uFlow Workstation. The plate was incubated for 10 minutes at room temperature. A volume of 20 μL of a solution containing 1:100 mixture of Dual-Glo Stop & Glo substrate (Promega, Dual-Glo Luciferase Assay Reagent, cat. #E313B) and Dual-Glo Stop & Glo buffer (Promega, Dual-Glo Luciferase Assay Reagent, cat #E314B) was then added to each well of the plate with a Biotek uFlow Workstation. The plate was incubated at room temperature for 10 minutes before the luminescence signal was measured with a Perkin Elmer Envision Plate Reader.
The percent cytotoxicity was determined by calcein AM conversion to fluorescent product. The average fluorescent signal from the DMSO control wells were defined as 100% nontoxic. The individual fluorescent signal from testing compound treated well was divided by the average signal from DMSO control wells and then multiplied by 100% to get the percent viability. The percent anti-HCV replication activity was determined by the luminescence signal from the testing well compared to DMSO controls wells. The background signal was determined by the average luminescence signal from the HCV protease inhibitor treated wells and was subtracted from the signal from the testing wells as well as the DMSO control wells. Following 3-fold serial dilutions, the EC50 and CC50 values were calculated by fitting % inhibition at each concentration to the following equation: % inhibition=100%/[(EC50/[I])^b+1]
Where b is Hill's coefficient. See, for reference, Hill, A. V., The Possible Effects of the Aggregation of the Molecules of Haemoglobin on its Dissociation Curves, J. Physiol. 40: iv-vii. (1910).
% inhibition values at a specific concentration, for example 2 μM, can also be derived from the formula above.

[1] = 2 μM, Huh-7 HCV replicon cells, 3 days incubation, inhibition of viral replication

## CC1=CC[C@@H](C(=O)N(c2cc(C#CC(C)(C)C)sc2C(=O)O)[C@H]2CC[C@](O)(CO[C@@H]3CCOC3)CC2)CC1 [Compound 7]
[1]
  inhibition at 2 µM: 100%

## CC(C)(C)C#Cc1cc(N(C(=O)[C@H]2CC[C@H](C)CC2)[C@H]2CC[C@@](O)(CO[C@H]3CCOC3)CC2)c(C(=O)O)s1 [Compound 4]
[1]
  inhibition at 2 µM: 99.6%

## CC1=CCC(C(=O)N(c2cc(C#CC(C)(C)C)sc2C(=O)O)[C@H]2CC[C@](O)(CO[C@H]3CCOC3)CC2)[C@H](C)C1 (single isomer, unassigned) [Compound 5B, 5-(3,3-dimethyl-but-1-ynyl)-3-{(4,6R-dimethyl-cyclohex-3-enecarbonyl)-[4-hydroxy-4-(tetrahydro-furan-3-yloxymethyl)-cyclohexyl]-amino}-thiophene-2-carboxylic acid]
[1]
  % inhibition at 2 μM: 99.95%

## CC1=CC[C@H](C(=O)N(c2cc(C#CC(C)(C)C)sc2C(=O)O)[C@H]2CC[C@](O)(CO[C@@H]3CCOC3)CC2)CC1 [Compound 10]
[1]
  inhibition at 2 µM: 100%

## CC1=CC[C@H](C(=O)N(c2cc(C#CC(C)(C)C)sc2C(=O)O)[C@H]2CC[C@](O)(CO[C@@H]3CCOC3)CC2)[C@@H](C)C1 [Compound 18]
[1]
  inhibition at 2 µM: 100%

## CC1=CC[C@H](C(=O)N(c2cc(C#CC(C)(C)C)sc2C(=O)O)[C@H]2CC[C@](O)(CO[C@H]3CCOC3)CC2)[C@@H](C)C1 [Compound 16]
  inhibition at 2 µM: 100%

## [2H]C([2H])([2H])C(C#Cc1cc(N(C(=O)[C@H]2CC=C(C)CC2)C2CCC(O)(CO[C@H]3CCOC3)CC2)c(C(=O)O)s1)(C([2H])([2H])[2H])C([2H])([2H])[2H] (stereo partly shown) [Compound 24]
[1]
  inhibition at 2 µM: 100%

## CC1=CCC(C(=O)N(c2cc(C#CC(C)(C)C)sc2C(=O)O)[C@H]2CC[C@](O)(CO[C@H]3CCOC3)CC2)[C@H](C)C1 (single isomer, unassigned) [Compound 5A, 5-(3,3-dimethyl-but-1-ynyl)-3-{(4,6R-dimethyl-cyclohex-3-enecarbonyl)-[4-hydroxy-4-(tetrahydro-furan-3-yloxymethyl)-cyclohexyl]-amino}-thiophene-2-carboxylic acid]
[1]
  inhibition at 2 µM: 100%

## CC1=CC[C@H](C(=O)N(c2cc(C#CC(C)(C)C)sc2C(=O)O)[C@H]2CC[C@](O)(CO[C@H]3CCOC3)CC2)CC1 [Compound 9]
[1]
  inhibition at 2 µM: 100%

## CC(C)(C)C#Cc1cc(N(C(=O)[C@H]2CC[C@H](C)CC2)C2CCC(O)(COc3cccnc3)CC2)c(C(=O)O)s1 (stereo partly shown) [Compound 1, 5-(3,3-Dimethylbut-1-ynyl)-3-(N-(4-hydroxy-4-((pyridin-3-yloxy)methyl)cyclohexyl)-4-methylcyclohexanecarboxamido)thiophene-2-carboxylic acid]
[1]
  inhibition at 2 µM: 99.9%

## CC1=CC[C@@H](C(=O)N(c2cc(C#CC(C)(C)C)sc2C(=O)O)[C@H]2CC[C@](O)(CO[C@H]3CCOC3)CC2)CC1 [Compound 8]
[1]
  inhibition at 2 µM: 99.9%

## CC1=CC[C@H](C(=O)N(c2cc(C#CC(C)(C)CO)sc2C(=O)O)[C@H]2CC[C@](O)(CO[C@H]3CCOC3)CC2)CC1 [Compound 29, 5-(4-hydroxy-3,3-dimethylbut-1-ynyl)-3-((R)-N-((1R,4S)-4-hydroxy-4-(((S)-tetrahydrofuran-3-yloxy)methyl)cyclohexyl)-4-methylcyclohex-3-enecarboxamido)thiophene-2-carboxylic acid]
[1]
  inhibition at 2 µM: 100%

## CC1=CCC(C(=O)N(c2cc(C#CC(C)(C)C)sc2C(=O)O)[C@H]2CC[C@](O)(CO[C@H]3CCOC3)CC2)[C@@H](C)C1 (stereo partly drawn) [Compound 6, 5-(3,3-dimethyl-but-1-ynyl)-3-{(4,6S-dimethyl-cyclohex-3-enecarbonyl)-[4-hydroxy-4-(tetrahydro-furan-3(S)-yloxymethyl)-cyclohexyl]-amino}-thiophene-2-carboxylic acid]
[1]
  inhibition at 2 µM: 99.9%

## CC(C)(C)C#Cc1cc(N(C(=O)[C@H]2CC[C@H](C)CC2)[C@H]2CC[C@](O)(CO[C@H]3CCOC3)CC2)c(C(=O)O)s1 [Compound 3, 5-(3,3-Dimethyl-but-1-ynyl)-3-[[4-hydroxy-4-(tetrahydrofuran-3S-yloxymethyl)-cyclohexyl]-(4-methyl-cyclohexanecarbonyl)-amino]-thiophene-2-carboxylic acid]
[1]
  inhibition at 2 µM: 100%

## COC(=O)c1sc(C#CC(C)(C)C)cc1N(C(=O)[C@H]1CC=C(C)C[C@@H]1C)[C@H]1CC[C@](O)(CO[C@H]2CCOC2)CC1 [Compound 17]
[1]
  inhibition at 2 µM: 78.8%

## CC(C)(C)C#Cc1cc(N(C(=O)[C@H]2CC[C@H](C)CC2)[C@H]2CC[C@](O)(CO[C@@H]3CCOC3)CC2)c(C(=O)O)s1 [Compound 2, 5-(3,3-Dimethyl-but-1-ynyl)-3-[[4-hydroxy-4-(tetrahydrofuran-3R-yloxymethyl)-cyclohexyl]-(4-methyl-cyclohexanecarbonyl)-amino]-thiophene-2-carboxylic acid]
[1]
  inhibition at 2 µM: 100%
